Source: patent US20100056515A1, “BENZIMIDAZOLE COMPOUNDS” (priority 2006, published 2010)

Tests used:
human CRF receptor = biological target: T1, human CRF receptor (Homo sapiens, UniProt P34998); assay: Measurement of CRF Binding Inhibitory Rate (receptor binding experiment with 125I-CRF); conditions: human CRF receptor expressing CHO cellular membrane fraction; 50 pM ovine 125I-CRF; 0.05 nM to 10 μM of compound; room temperature 1.5 hr; read-out: IC50 values (CRF binding inhibition)
T1 construct: expressed in transfected cells; host or cells: CHO cells (membrane fraction)
T1 sequence (P34998 24-415): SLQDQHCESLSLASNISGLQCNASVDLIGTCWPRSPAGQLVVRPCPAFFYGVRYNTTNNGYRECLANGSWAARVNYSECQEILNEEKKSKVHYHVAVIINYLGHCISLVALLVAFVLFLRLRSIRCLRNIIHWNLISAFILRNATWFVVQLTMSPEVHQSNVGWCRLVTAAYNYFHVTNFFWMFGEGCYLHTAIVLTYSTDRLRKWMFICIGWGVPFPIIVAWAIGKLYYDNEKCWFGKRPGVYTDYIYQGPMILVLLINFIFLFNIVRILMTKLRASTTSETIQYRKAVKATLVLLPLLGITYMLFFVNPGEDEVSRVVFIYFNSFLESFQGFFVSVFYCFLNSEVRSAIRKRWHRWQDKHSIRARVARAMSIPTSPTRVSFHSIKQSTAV
Experimental: Measurement of CRF Binding Inhibitory Rate
A receptor binding experiment was carried out using a human CRF receptor expressing CHO cellular membrane fraction and ovine CRF, [^125I]-tyr^0(^125I-CRF). 1000 nM of a test compound was incubated with 1 μg of human CRF receptor expressing CHO cellular membrane fraction and 50 pM of ^125I-CRF in a binding assay buffer (50 mM Tris-HCl, 5 mM EDTA, 10 mM MgCl2, 0.05% CHAPS, 0.1% BSA, 0.5 mM PMSF, 0.1 μg/mL pepstatin, 20 μg/mL leupeptin, pH 7.5). In addition, for measuring nonspecific binding (NSB), 0.1 μM unlabelled human Urocortin was incubated with 5 μg of human CRF receptor expressing CHO cellular membrane fraction and 50 pM of ^125I-CRF in a binding assay buffer. After a binding reaction was carried out at room temperature for 1.5 hr, the membrane was entrapped on a glass filter (UniFilter plate GF-C/Perkin Elmer) by suction filtration using a cell harvester (Perkin Elmer), and washed with ice-cooled 50 mM Tris-HCl (pH 7.5). After drying the glass filter, a liquid scintillation cocktail (Microscinti 0, Perkin Elmer) was added, and the radioactivity of ^125I-CRF remaining on a glass filter was measured using Topcount (Perkin Elmer).
(TB-SB)/(TB-NSB)×100 (SB: radioactivity when a compound is added, TB: maximum binding radioactivity, NSB: nonspecific binding radioactivity) were calculated to obtain binding inhibitory rates under the range of the presence from 0.05 nM to 10 μM of each compounds. The IC50 values were calculated by using GraphPad Prism software.

SMILES	IC50 (human CRF receptor) [nM]	melting point [°C]
CCC(CC)c1ccc(Cl)c2nc(Oc3c(C)cc(SC)cc3Cl)n(C)c12 [Example 36, 4-Chloro-2-[2-chloro-6-methyl-4-(methylthio)phenoxy]-7-(1-ethylpropyl)-1-methyl-1H-benzimidazole]	< 1000	141 to 143
CCC(CC=O)c1ccc(Cl)c2nc(Oc3c(C)cc(Cl)cc3Cl)n(C)c12 (centres unmarked) [Example 98, 3-[4-Chloro-2-(2,4-dichloro-6-methylphenoxy)-1-methyl-1H-benzimidazol-7-yl]pentanal]	< 1000	157 to 158
CCC(CC)c1ccc(Cl)c2nc(Oc3c(Cl)cc(Cl)cc3CN3CCCC3)n(C)c12 [Example 78, 4-Chloro-2-[2,4-dichloro-6-(pyrrolidin-1-ylmethyl)phenoxy]-7-(1-ethylpropyl)-1-methyl-1H-benzimidazole]	< 1000	122 to 123
CCC(CC)c1ccc(Cl)c2nc(Oc3c(Cl)cc(Cl)cc3CN(C)C)n(C)c12 [Example 86, 1-(3,5-Dichloro-2-{[4-chloro-7-(1-ethylpropyl)-1-methyl-1H-1-benzimidazol-2-yl]oxy}phenyl)-N,N-dimethylmethanamine]	< 1000	149 to 151
CCC(CC)c1ccc(OC)c2nc(Oc3ccc(OC(F)(F)F)cc3CN(C)C)n(C)c12 [Example 13, 1-[2-{[7-(1-Ethylpropyl)-4-methoxy-1-methyl-1H-benzimidazol-2-yl]oxy}-5-(trifluoromethoxy)phenyl]-N,N-dimethylmethanamine]	< 1000	95 to 97
CCC(CC)c1ccc(Cl)c2nc(Oc3c(Cl)cc(OC(F)(F)F)cc3[S+](C)[O-])n(C)c12 (centres unmarked) [Example 43, 4-Chloro-2-[2-chloro-6-(methylsulfinyl)-4-(trifluoromethoxy)phenoxy]-7-(1-ethylpropyl)-1-methyl-1H-benzimidazole]	< 1000	150 to 151
CCC(CC)c1ccc(Cl)c2nc(Oc3c(OC)cc(C(F)(F)F)nc3C)n(C)c12 [Example 56, 4-Chloro-7-(1-ethylpropyl)-2-{[4-methoxy-2-methyl-6-(trifluoromethyl)pyridin-3-yl]oxy}-1-methyl-1H-benzimidazole]	< 1000	178 to 179
CCC(CC)c1ccc(OC)c2nc(Oc3ccc(Cl)cc3N(C)C)n(C)c12 [Example 4, 5-Chloro-2-{[7-(1-ethylpropyl)-4-methoxy-1-methyl-1H-benzimidazol-2-yl]oxy}-N,N-dimethylaniline]	< 1000	122 to 123
CCC(CC)c1ccc(OC)c2nc(Oc3c(F)cc(Br)cc3Cl)n(C)c12 [Example 81, 2-(4-Bromo-2-chloro-6-fluorophenoxy)-7-(1-ethylpropyl)-4-methoxy-1-methyl-1H-benzimidazole]	< 1000	129 to 131
CCC(CC)c1ccc(Cl)c2nc(Oc3c(Cl)cc(OC(F)(F)F)cc3SC)n(C)c12 [Example 42, 4-Chloro-2-[2-chloro-6-(methylthio)-4-(trifluoromethoxy)phenoxy]-7-(1-ethylpropyl)-1-methyl-1H-benzimidazole]	< 1000	138 to 139
CCC(CC)c1ccc(Cl)c2nc(Oc3c(Cl)cc(Cl)cc3S(N)(=O)=O)n(C)c12 [Example 32, 3,5-Dichloro-2-{[4-chloro-7-(1-ethylpropyl)-1-methyl-1H-5 benzimidazol-2-yl]oxy}benzenesulfonamide]	< 1000	133 to 134
CCC(CC)c1ccc(Cl)c2nc(Oc3c(Cl)cc(Cl)c4c3CN(C)C4)n(C)c12 [Example 55, 4-Chloro-2-[(5,7-dichloro-2-methyl-2,3-dihydro-1H-isoindol-4-yl)oxy]-7-(1-ethylpropyl)-1-methyl-1H-benzimidazole]	< 1000	148 to 149
CCC(CC)c1ccc(Cl)c2nc(Oc3c(Cl)cc(Cl)cc3N3CCOCC3)n(C)c12 [Example 25, 4-Chloro-2-(2,4-dichloro-6-morpholin-4-ylphenoxy)-7-(1-ethylpropyl)-1-methyl-1H-benzimidazole]	< 1000	155 to 157
CCC(CC)c1ccc(OC)c2nc(Oc3ccc(C(F)(F)F)cc3N(C)C)n(C)c12 [Example 12, 2-{[7-(1-Ethylpropyl)-4-methoxy-1-methyl-1H-benzimidazol-2-yl]oxy}-N,N-dimethyl-5-(trifluoromethyl)aniline]	< 1000	131 to 133
CCC(CC)c1ccc(Cl)c2nc(Nc3c(C)cc(Cl)cc3[S+](C)[O-])n(C)c12 (centres unmarked) [Example 51, 4-Chloro-N-[4-chloro-2-methyl-6-(methylsulfinyl)phenyl]-7-(1-ethylpropyl)-1-methyl-1H-benzimidazol-2-amine]	< 1000	212 to 213
CCC(CC)c1ccc(Br)c2nc(Oc3c(C)cc(Cl)cc3Cl)n(C)c12 [Example 70, 4-Bromo-2-(2,4-dichloro-6-methylphenoxy)-7-(1-ethylpropyl)-1-methyl-1H-benzimidazole]	< 1000	146 to 147
CCC(CC)c1ccc(Cl)c2nc(Oc3c(Cl)cc(Cl)cc3N3CCN(C)CC3)n(C)c12 [Example 26, 4-Chloro-2-[2,4-dichloro-6-(4-methylpiperazin-1-yl)phenoxy]-7-(1-ethylpropyl)-1-methyl-1H-benzimidazole]	< 1000	162 to 164
CCC(CC)c1ccc(Cl)c2nc(Nc3c(C)cc(Cl)cc3SC)n(C)c12 [Example 50, 4-Chloro-N-[4-chloro-2-methyl-6-(methylthio)phenyl]-7-(1-ethylpropyl)-1-methyl-1H-benzimidazol-2-amine]	< 1000	167 to 169
CCC(CC)c1ccc(OC)c2nc(Oc3c(Cl)cc(N(C)C)cc3Cl)n(C)c12 [Example 2, 3,5-Dichloro-4-{[7-(1-ethylpropyl)-4-methoxy-1-methyl-1H-benzimidazol-2-yl]oxy}-N,N-dimethylaniline]	< 1000	176 to 177
CCC(CC)c1ccc(Cl)c2nc(Nc3c(C)cc(SC)cc3OC)n(C)c12 [Example 45, 4-Chloro-7-(1-ethylpropyl)-N-[2-methoxy-6-methyl-4-(methylthio)phenyl]-1-methyl-1H-benzimidazol-2-amine]	< 1000	223 to 225
CCC(CC)c1ccc(Cl)c2nc(Oc3c(Cl)cc(Cl)cc3N(C)C)n(C)c12 [Example 24, 3,5-Dichloro-2-{[4-chloro-7-(1-ethylpropyl)-1-methyl-1H-benzimidazol-2-yl]oxy}-N,N-dimethylaniline]	< 1000	172 to 173
CCC(CC)c1ccc(Cl)c2nc(Oc3c(Br)cc(Br)nc3C)n(C)c12 [Example 74, 4-Chloro-2-[(4,6-dibromo-2-methylpyridin-3-yl)oxy]-7-(1-ethylpropyl)-1-methyl-1H-benzimidazole]	< 1000	202 to 203
CCC(CC)c1ccc(OC)c2nc(Oc3c(Cl)cc(Cl)cc3CN(C)C)n(C)c12.Cl [Example 77, 1-(3,5-Dichloro-2-{[7-(1-ethylpropyl)-4-methoxy-1-methyl-1H-benzimidazol-2-yl]oxy}phenyl)-N,N-dimethylmethanamine]	< 1000	169 to 170
CCC(CC)c1ccc(Cl)c2nc(Oc3c(Cl)cc(Cl)cc3N3CCCC3)n(C)c12 [Example 29, 4-Chloro-2-(2,4-dichloro-6-pyrrolidin-1-ylphenoxy)-7-(1-ethylpropyl)-1-methyl-1H-benzimidazole]	< 1000	209 to 210
CCC(CC)c1ccc(OC)c2nc(Oc3c(C)cc(OC(F)(F)F)cc3CN(C)C)n(C)c12.Cl [Example 15, 1-[2-{[7-(1-Ethylpropyl)-4-methoxy-1-methyl-1H-benzimidazol-2-yl]oxy}-3-methyl-5-(trifluoromethoxy)phenyl]-N,N-dimethylmethanamine Hydrochloride]	< 1000	92 to 94
